Assay results taken from US11814352B2, “Salts formed by 2-(1-acyloxy-n-pentyl) benzoic acid and basic amino acid or aminoguanidine, and preparation method and application thereof” (JIANGSU KANION PHARMACEUTICAL CO., LTD., priority 2018, dated 2023).
Converted amounts (≈) assume the structure as drawn. “And” between values parts separate entries of the source, which are not always exact repeats. Equal values may be shown once. Read-outs that look alike come from different tables or passages of the source. Marks after values point to notes of the source that are not given here.

Experiments:
[1] = Preliminary stability of sample solution in water and methanol; format: physicochemical; conditions: 1 mg/mL stock prepared 2018 Jun. 25, analysed Jun. 29, Jul. 2, Jul. 7
Experimental: 2018 Jun. […] For each sample test, the stock solution was taken and diluted freshly.
2018 Jun. 29 200 μL of the stock solution was pipetted, 3800 μL of a mobile phase in the initial ratio was added, and 10 μL of a test sample with a concentration of 50 μg/mL was prepared for injection and analysis.
2018 Jul. 2 200 μL of the stock solution was pipetted, 3800 μL of a mobile phase in the initial ratio was added, and 10 μL of a test sample with a concentration of 50 μg/mL was prepared for injection and analysis.
2018 Jul. 7 200 μL of the stock solution was pipetted, 3800 μL of a mobile phase in the initial ratio was added, and 10 μL of a test sample with a concentration of 50 μg/mL was prepared for injection and analysis.
29, 2018 Jul. 2, and 2018 Jul.

[2] = system: bleeding time in mice after tail cutting; experiment: Effect on bleeding time in mice after tail cutting; format: in vivo, Kunming mice; conditions: 5 mg/kg orally once a day for 14 days, 1 h after last dose
Experimental: SPF Kunming mice, weighing 18-22 g, purchased from Beijing Vital River Laboratory Animal Technology Co., Ltd., having a certificate number of SCXK (Beijing) 2010-0002, raised in an SPF animal room with indoor temperature controlled at 23±2° C., and allowed to freely eat and drink. The day and night time was 12 h/12 h.
The administration dose level of the positive drug groups and the test drug groups was 5 mg/kg, and the same amount of normal saline was given to the negative control group. All mice were administered for 14 consecutive days orally once a day. One hour after the last dose, the mice were anesthetized with 1-2% isoflurane, and the tails were cut for 5 mm. The tips of the tails were absorbed dry with filter paper every 30 seconds until the bleeding stopped naturally. Bleeding time is defined as the interval between the start and stop of bleeding.

[3] = Solubility test (saturated solubility in water); format: physicochemical; conditions: 25±2° C.; for solubility at 30 min: 25 °C, thermodynamic from solid
Experimental: Test method: 10 mg of a test sample (solid was ground into fine powder) was weighed and added to a certain amount of solvent at 25±2° C. (the temperature of a water bath is controlled at 25° C.), and the solution was shaken vigorously for 30 s every 5 min. The dissolution was observed within 30 min. When there were no visible solute particles or droplets, the test sample was regarded as completely dissolved.

[4] = system: ADP induced platelet aggregation; experiment: In vitro anti-platelet aggregation, ADP induced (turbidimetry, PRP); format: cell-based, rabbits; conditions: read-out: IC50 ADP (10 μM); rabbit PRP, inducer ADP 10 μM, 37° C.
[5] = biological target: hERG potassium channel of CHO-hERG cells (Homo sapiens, UniProt Q12809); experiment: Effect on hERG potassium channel (automatic patch clamp)
[6] = Acute toxicity test, tail vein injection in mice; conditions: female, ICR, mouse, in vivo, iv, LD50 value, Bliss method
ICR mice = experiment: Acute toxicity test, tail vein injection in mice; conditions: for Number of deaths (quantity): 10 animals, 14 days
[7] = system: histidine-deficient TA97, TA98, TA100 and TA102 strains of Salmonella typhimurium; experiment: Bacterial reverse mutation test (Ames test); conditions: 0.1-1000 μg/dish, with and without S9
Experimental: The test bacteria are the histidine-deficient TA97, TA98, TA100 and TA102 strains of Salmonella typhimurium, and the dose range of the test sample is 0.1-1000 μg/dish.

[8] = system: arteriovenous bypass thrombosis in rats; experiment: Effect on arteriovenous bypass thrombosis in rats; format: in vivo, SD rats; conditions: 10 mg/kg/day tail vein 7 days; for inhibition at 10 mg/kg/day: Rattus norvegicus, 168 h, vs model group
How it was run: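 Male SD rats (250-280 g) dosed 10 mg/kg/day i.v. (tail vein, saline with 1% DMSO) for 7 days, n=8; vehicle controls. Two hours after the last dose, under pentobarbital, a carotid–jugular shunt holding a weighed suture ran for 15 min; thrombus wet and dry (24 h air-dried) weights taken.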

Chain of hERG potassium channel of CHO-hERG cells (Q12809 whole entry): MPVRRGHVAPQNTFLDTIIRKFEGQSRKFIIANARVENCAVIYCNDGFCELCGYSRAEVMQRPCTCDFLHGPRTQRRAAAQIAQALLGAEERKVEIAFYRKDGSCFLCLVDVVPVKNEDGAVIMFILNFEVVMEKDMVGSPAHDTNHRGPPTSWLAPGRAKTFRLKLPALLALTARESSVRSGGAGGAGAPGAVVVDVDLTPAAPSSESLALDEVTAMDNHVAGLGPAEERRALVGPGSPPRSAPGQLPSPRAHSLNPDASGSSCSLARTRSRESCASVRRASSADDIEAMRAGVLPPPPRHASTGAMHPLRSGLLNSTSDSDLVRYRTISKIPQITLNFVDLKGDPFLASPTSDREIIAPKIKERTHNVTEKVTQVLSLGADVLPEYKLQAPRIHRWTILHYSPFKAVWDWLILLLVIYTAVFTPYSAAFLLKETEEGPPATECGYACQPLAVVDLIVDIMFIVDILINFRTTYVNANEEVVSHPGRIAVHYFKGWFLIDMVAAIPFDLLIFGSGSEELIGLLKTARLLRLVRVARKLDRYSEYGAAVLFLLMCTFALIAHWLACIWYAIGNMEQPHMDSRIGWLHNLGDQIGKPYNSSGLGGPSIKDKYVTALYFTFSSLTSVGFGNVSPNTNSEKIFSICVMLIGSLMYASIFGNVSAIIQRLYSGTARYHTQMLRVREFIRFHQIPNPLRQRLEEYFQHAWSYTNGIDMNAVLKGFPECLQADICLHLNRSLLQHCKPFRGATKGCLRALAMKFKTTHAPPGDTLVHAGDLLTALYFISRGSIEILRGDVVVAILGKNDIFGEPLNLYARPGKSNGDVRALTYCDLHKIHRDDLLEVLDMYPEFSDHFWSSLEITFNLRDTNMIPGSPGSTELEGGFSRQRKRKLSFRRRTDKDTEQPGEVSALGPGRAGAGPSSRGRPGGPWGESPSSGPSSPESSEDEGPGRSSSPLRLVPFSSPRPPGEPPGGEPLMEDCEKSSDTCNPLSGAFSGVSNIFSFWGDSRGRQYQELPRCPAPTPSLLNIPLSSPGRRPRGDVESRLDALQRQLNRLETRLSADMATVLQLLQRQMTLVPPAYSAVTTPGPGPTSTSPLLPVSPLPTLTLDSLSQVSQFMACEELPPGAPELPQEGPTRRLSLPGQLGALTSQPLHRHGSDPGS

## CCCC[C@H](OC(C)=O)c1ccccc1C(=O)O [I1s, L-Arginine (S)-2-(1-Acetoxy-n-Pentyl) Benzoate]
[1]
  Stability of the sample solution in CH3OH: basically stable
  Stability of the sample solution in H2O: basically stable
[2]
  Bleeding time: 25.31 ± 1.01 min
[3]; read-out: Saturated solubility in H2O, Mean
  solubility at 30 min: 136 mg/mL (≈ 544 mM)
[3]; read-out: Saturated solubility in H2O, dissolved sample amount (single determinations)
  solubility at 30 min: 134 mg/mL (≈ 535 mM)
[3]
  Saturated solubility in H2O, dissolved sample amount (single determinations): 134.24 mg/mL and 138.23 mg/mL and 138.40 mg/mL
[4]
  IC50: 720 ± 80 µM
[5]
  IC50: > 40 µM
[6]
  LD50 at 14 days: 1120 mg/kg
[6]; interval in parentheses
  LD50 at 14 days: 975 to 1290 mg/kg
ICR mice; higher dose in the tail vein
  Symptoms of poisoning: convulsions and decreased activity
ICR mice; i.v. 700 mg/kg
  Body weight D 1: 19.4 ± 0.6 g
  Body weight D 7: 21.0 ± 0.6 g
  Body weight D 14: 22.3 ± 0.7 g
  Number of deaths (quantity): 1
ICR mice; i.v. 900 mg/kg
  Body weight D 1: 19.8 ± 0.5 g
  Body weight D 7: 20.9 ± 0.6 g
  Body weight D 14: 22.2 ± 0.6 g
  Number of deaths (quantity): 2
ICR mice; i.v. 1100 mg/kg
  Body weight D 1: 19.4 ± 0.6 g
  Body weight D 7: 21.0 ± 0.5 g
  Body weight D 14: 22.0 ± 0.5 g
  Number of deaths (quantity): 4
ICR mice; i.v. 1300 mg/kg
  Body weight D 1: 19.5 ± 0.4 g
  Body weight D 7: 20.8 ± 0.6 g
  Body weight D 14: 22.1 ± 0.6 g
  Number of deaths (quantity): 6
ICR mice; i.v. 1500 mg/kg
  Body weight D 1: 19.9 ± 0.2 g
  Body weight D 7: 21.0 g
  Body weight D 14: 23.6 g
  Number of deaths (quantity): 9
[7]
  Ames test result (mutagenicity): negative
[8]; 2 h after last dose
  Dry weight of thrombus: 5.52 ± 0.44
  Wet weight of thrombus: 20.23 ± 1.25**^
[8]; read-out: Inhibition rate (dry weight of thrombus)
  inhibition at 10 mg/kg/day: 45%
[8]; read-out: Inhibition rate (wet weight of thrombus)
  inhibition at 10 mg/kg/day: 44.1%
